Assays:
A375 = assay: A375_P-ERK / A375 cell activity; type: cell-based; settings: Homo sapiens, A-375; A375 cells (A375_P-ERK)
Procedure: (§1) Compounds are assessed in a variety of cell based assays. For example human cell lines with B-Raf V600E mutation (A375 melanoma, SKMEL3 melanoma, and COLO205 colon adenocarcinoma), as well as tumorigenic cell lines with wild-type B-RAF (SW620 colon adenocarcinoma) or with Ras mutations (SKMEL2 melanoma and IPC298 melanoma). Similar assays may be used to assess additional tumorigenic cell lines with Ras mutations, including, but not limited to, M202, M207, M243, M244, M296, S117, HCT116, HCT15, DLD1, MiaPaCa, A549, NCI-H23, NCI-H460, HOP62, MDA-MB231, Hs-578T, HL60, MOLT-4, and CCRF-CEM.
(§2) On day 1, cells are counted, then centrifuged in a conical tube for 5 minutes at 1000 rpm. The supernatant is removed and cells are re-suspended as follows: • SW620 (ATCC catalog #CCL-27): resuspend in Leibovitz's L-15 medium, 2 mM L-glutamine, 10% fetal bovine serum to 6×10^4 cells/mL. • A375 (ATCC catalog #CRL-1619): resuspend in Dulbecco's modified Eagle's medium, 4 mM L-glutamine, 4.5 g/L D-glucose, 10% fetal bovine serum to 6×10^4 cells/mL. • COLO205 (ATCC catalog #CCL-222): resuspend in RPMI 1640, 2 mM L-glutamine, 1.5 g/L sodium bicarbonate, 4.5 g/L D-glucose, 10 mM HEPES, 1.0 mM sodium pyruvate, 10% fetal bovine serum to 6×10^4 cells/mL. • SKMEL2 (ATCC catalog #HTB-68): resuspend in Minimum Eagle essential medium, 2 mM L-glutamine, 1.5 g/L sodium bicarbonate, 0.1 mM non-essential amino acids, 1.0 mM sodium pyruvate, 10% fetal bovine serum to 6×10^4 cells/mL. • SKMEL3 (ATCC catalog #HTB-69): resuspend in McCoy's 5A medium, 1.5 mM L-glutamine, 15% fetal bovine serum to 6×10^4 cells/mL. • IPC298 (DSMZ catalog #ACC 251): resuspend in RPMI 1640, 2 mM L-glutamine, 10% fetal bovine serum to 6×10^4 cells/mL.
(§3) The cells are plated, 50 μL in each well of a 96-well dish (Corning 3610) and incubated at 37° C. in 5% CO2 overnight, cells plated to a final concentration of cells as follows: • SW620: 5,000 cells per well. • A375: 2,000 cells per well. • COLO205: 2,000 cells per well. • SKMEL2: 2,000 cells per well. • SKMEL3: 3,000 cells per well. • IPC298: 2,000 cells per well.
(§4) On day 2, compound at a maximum concentration of 5 mM is serially diluted 1:3 (e.g. 10 μL with 30 μL dimethyl sulfoxide) for a total of 8 point titration with DMSO as a control. A 1 μL aliquot of each dilution point and control is added to 249 μL growth media and 50 μL is added to a well containing cells, providing 10 μM compound at the maximum concentration point. The cells are incubated for 3 days at 37° C. in 5% CO2.
(§5) On day 5, ATPlite 1 step Luminescence Assay System (Perkin Elmer #6016739) is brought to room temperature along with the cell cultures. ATPlite is added 25 μL to each well, shake for 2 minutes, and the cells are incubated at room temperature for 10 minutes, then luminescence is read on Satire reader. The measured luminescence correlates directly with cell number, such that the reading as a function of compound concentration is used to determine the IC50 value.

COLO205 = COLO205 cell growth inhibitory activity (ATPlite); type: cell-based; settings: Homo sapiens, COLO 205, 72 h; COLO205 cells, growth inhibition, 3 days
Procedure: as §1, §2, §3, §4, §5

| SMILES | IC50 (A375) [µM] | IC50 (COLO205) [µM] |
| --- | --- | --- |
| O=C(c1c(F)ccc(NS(=O)(=O)N2CCCC2)c1F)c1c[nH]c2ncc(F)c(I)c12 [Compound P-0015, N-[2,4-difluoro-3-(5-fluoro-4-iodo-1H-pyrrolo[2,3-b]pyridine-3-carbonyl)phenyl]pyrrolidine-1-sulfonamide] | < 1 | > 1 |
| O=C(c1c(F)ccc(NS(=O)(=O)N2CCCC2)c1F)c1c[nH]c2ncc(-c3ccc(Cl)cc3)cc12 [Compound P-0021] | < 1 | < 1 |
| CN(C)c1ncc(-c2cnc3[nH]cc(C(=O)c4c(F)ccc(NS(=O)(=O)N5CCCC5)c4F)c3c2)cn1 [Compound P-0022] | < 1 | < 1 |
| O=C(c1c(F)ccc(NS(=O)(=O)N2CCCC2)c1F)c1c[nH]c2ncc(I)cc12 [Compound P-0024] | < 1 | > 1 |
| Cc1ccc(-c2cnc3[nH]cc(C(=O)c4cccc(NS(=O)(=O)N(C)C)c4F)c3c2)cn1 [Compound P-0029] | < 1 | < 1 |
| CN(C)c1ccc(-c2cnc3[nH]cc(C(=O)c4cccc(NS(=O)(=O)N(C)C)c4F)c3c2)cn1 [Compound P-0030] | < 1 | < 1 |
| CCN(C)S(=O)(=O)Nc1cccc(C(=O)c2c[nH]c3ncc(-c4ccc(C#N)cc4)cc23)c1F [Compound P-0031] | < 1 | < 1 |
| CCN(C)S(=O)(=O)Nc1cccc(C(=O)c2c[nH]c3ncc(-c4cncc(C#N)c4)cc23)c1F [Compound P-0101, 5-(5-cyano-3-pyridyl)-3-[3-[[ethyl(methyl)sulfamoyl]amino]-2-fluoro-benzoyl]-1H-pyrrolo[2,3-b]pyridine] | < 1 |  |
| CC1(C)CCN(S(=O)(=O)Nc2cccc(C(=O)c3c[nH]c4ncc(-c5cnc(C6CC6)nc5)cc34)c2F)C1 [Compound P-0246, N-[3-[5-(2-cyclopropylpyrimidin-5-yl)-1H-pyrrolo[2,3-b]pyridine-3-carbonyl]-2-fluoro-phenyl]-3,3-dimethyl-pyrrolidine-1-sulfonamide] | > 1 |  |

Second part, the molecule after the results:

| IC50 (A375) [µM] | IC50 (COLO205) [µM] | SMILES |
| --- | --- | --- |
| < 1 | < 1 | CCN(C)S(=O)(=O)Nc1cccc(C(=O)c2c[nH]c3ncc(-c4cccnc4)cc23)c1F [Compound P-0032] |
| < 1 | > 1 | CCN(C)S(=O)(=O)Nc1cccc(C(=O)c2c[nH]c3ncc(-c4ccccc4)cc23)c1F [Compound P-0036, 3-[3-[[ethyl(methyl)sulfamoyl]amino]-2-fluoro-benzoyl]-5-phenyl-1H-pyrrolo[2,3-b]pyridine] |
| < 1 | > 1 | CN(C)S(=O)(=O)Nc1cccc(C(=O)c2c[nH]c3ncc(-c4ccccc4)cc23)c1F [Compound P-0037, 3-[3-(dimethylsulfamoylamino)-2-fluoro-benzoyl]-5-phenyl-1H-pyrrolo[2,3-b]pyridine] |
| > 1 |  | COc1ncc(-c2cnc3[nH]cc(C(=O)c4cccc(NS(=O)(=O)N5CCC(OCc6ccccc6)C5)c4F)c3c2)cn1 (centres unmarked) [Compound P-0041, 3-benzyloxy-N-[2-fluoro-3-[5-(2-methoxypyrimidin-5-yl)-1H-pyrrolo[2,3-b]pyridine-3-carbonyl]phenyl]pyrrolidine-1-sulfonamide] |
| < 1 | < 1 | CN(C)c1ccc(-c2cnc3[nH]cc(C(=O)c4cccc(NS(=O)(=O)N5CCCC5)c4F)c3c2)cn1 [Compound P-0046, N-[3-[5-[6-(dimethylamino)-3-pyridyl]-1H-pyrrolo[2,3-b]pyridine-3-carbonyl]-2-fluoro-phenyl]pyrrolidine-1-sulfonamide] |
|  | > 1 | CCOC(=O)C1CCCN1S(=O)(=O)Nc1cccc(C(=O)c2c[nH]c3ncc(-c4cnc(OC)nc4)cc23)c1F (centres unmarked) [Compound P-0257, ethyl 1-[[2-fluoro-3-[5-(2-methoxypyrimidin-5-yl)-1H-pyrrolo[2,3-b]pyridine-3-carbonyl]phenyl]sulfamoyl]pyrrolidine-2-carboxylate] |
